Measurements published in PubChem BioAssay (NCI).
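Following 48 hours of exposure in 96-well plates, responses at five concentrations were used to interpolate endpoints linearly. GI50 marks 50% less growth. The concentration for full growth arrest is given as TGI.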

Experiments:
Assay in all cases: NCI-60 cell line screen, 48 h
A549 NSCLC = test system: A549 NSCLC
DU-145 prostate = test system: DU-145 prostate
HCT-116 colon = test system: HCT-116 colon
HS 578T breast = test system: HS 578T breast
KM12 colon = test system: KM12 colon
NCI-H460 lung = test system: NCI-H460 lung
NCI-H522 lung = test system: NCI-H522 lung
NCI/ADR-RES ovarian = test system: NCI/ADR-RES ovarian
SNB-75 CNS = test system: SNB-75 CNS
T-47D breast = test system: T-47D breast

SMILES | TGI (A549 NSCLC) | TGI (DU-145 prostate) | TGI (HCT-116 colon) | TGI (HS 578T breast) | TGI (KM12 colon) | TGI (NCI-H460 lung) | TGI (NCI-H522 lung) | TGI (NCI/ADR-RES ovarian) | TGI (SNB-75 CNS) | TGI (T-47D breast) | GI50 (A549 NSCLC) | GI50 (DU-145 prostate) | GI50 (HCT-116 colon) | GI50 (HS 578T breast) | GI50 (KM12 colon) | GI50 (NCI-H460 lung) | GI50 (NCI-H522 lung) | GI50 (NCI/ADR-RES ovarian) | GI50 (SNB-75 CNS) | GI50 (T-47D breast)
Cn1/c(=N\N=C2\C=C3CCCCC3(C)CC2)sc2ccccc21 (stereo not given) | > 100 µM | > 100 µM | > 100 µM | > 100 µM | > 100 µM | > 100 µM | > 100 µM | > 100 µM | > 100 µM | > 100 µM |  |  |  |  |  |  |  |  |  | 
O=CCCCCCOCc1ccccc1 | > 100 µM | > 100 µM | > 67.9 µM | > 100 µM | > 100 µM | > 54.9 µM | > 100 µM | > 100 µM | > 100 µM | > 100 µM |  |  |  |  |  |  |  |  |  | 
CN(CCCCCl)P(=O)(OCc1ccc([N+](=O)[O-])o1)OCC1OC(n2ccc(N)nc2=O)C(O)C1O (stereo not given) | 2.61 µM | 44.6 µM | 25.9 µM | 6.46 µM | 34.6 µM | 68.3 µM | 24.3 µM | > 100 µM | 5.59 µM | 7.71 µM |  |  |  |  |  |  |  |  |  | 
O=S(=O)(Nc1nc2ccccc2nc1N1CCCCCC1)c1ccccc1 | > 100 µM | > 100 µM | > 100 µM | 83.9 µM | 52 µM | 33.5 µM | 57.1 µM | > 100 µM | 86.1 µM | > 100 µM |  |  |  |  |  |  |  |  |  | 
COc1nc(Cl)nc(N[C@H](C)c2c3ccccc3cc3ccccc23)n1 | 96.2 µM | 25 µM | 24.8 µM | 21.9 µM | 26.9 µM | 33.9 µM | 21.3 µM | 31.3 µM | 76.4 µM | 9.08 µM |  |  |  |  |  |  |  |  |  | 
CCOC(=O)NC(=S)N(CC(=O)c1cc(OC)c(OC)c(OC)c1)c1ccc(Cl)cc1 | > 100 µM | > 100 µM | > 100 µM | > 100 µM | > 100 µM | > 100 µM | > 100 µM | > 100 µM | > 100 µM | 72.9 µM | 59.6 µM | 79.1 µM | 72.3 µM | 96.4 µM | > 100 µM | 52.5 µM | 27.9 µM | 56.5 µM | 34.1 µM | 23.5 µM
C[n+]1cccc2ccc3cccnc3c21 | > 100 µM | > 100 µM | > 100 µM | 64.3 µM | 96.6 µM | > 100 µM | 35.1 µM | > 100 µM | 65.1 µM | 96.5 µM |  |  |  |  |  |  |  |  |  | 
